The values that follow come from PubChem BioAssay AID743395 (Broad Institute, 2014).

Structures are written as SMILES.

This assay relates to HepG2 viability, CellTiter-Glo ATP luminescence, 72 h. Briefly: HepG2 cell cytotoxicity, dose response, cytotoxicity control, CellTiter-Glo luminescence, cherry-pick, set 2 (AID 743395). (In general: In ATP-based viability assays light output follows the ATP content of the culture.)
For `O=[N+]([O-])c1ccc(/C=C/C2=NN(c3ccccc3)C(c3ccco3)C2)o1` (stereo unspecified), the AC35 was 15.1 µM. Under `O=C(Cc1ccc(Br)cc1)NCc1ccccc1` stands 5.52 µM; under `COc1ccc(S(=O)(=O)N2CC[C@@H]3[C@H](CO)N(C)c4ccc(-c5ccc(F)cc5)cc4[C@@H]32)cc1`, 2.21 µM; under `OC[C@@H]1CN(Cc2ccc(-c3ccccc3)cc2)C[C@H](n2cnc3c(NC4CC4)ncnc32)O1`, 19.3 µM. For `COc1cccc(N2CCN(C(=O)c3ccc(CS(=O)c4ccc(C)cc4)o3)CC2)c1` (stereo unspecified), the AC35 is 0.833 µM. With `CCc1nc(N)nc(N)c1-c1ccc(Cl)c([N+](=O)[O-])c1` the figure was 0.276 µM; with `Cc1ccccc1S(=O)(=O)N1C[C@@H]2N[C@H](C1)C2c1ccc(-c2cccc(C#N)c2)cc1` (stereo partly specified), 9.94 µM.

`COc1ccc(NC(=O)C2(C)Cc3c(-c4cccc(NC(C)=O)c4)ccnc3O2)cc1` (stereo unspecified): the AC35 was 4.15 µM. Regarding `C[C@H]1CN([C@@H](C)CO)S(=O)(=O)c2ccc(-c3ccc(C#N)cc3)cc2O[C@@H]1CN(C)Cc1ccccn1`, the AC35 is 5.26 µM. As for `COc1ccc(CN(C)C[C@H]2OCCCC[C@H](C)Oc3ccc(NC(=O)Nc4ccc(C(F)(F)F)cc4)cc3C(=O)N([C@H](C)CO)C[C@H]2C)cc1`, the AC35 was 10.1 µM. With `C[C@H]1CN([C@@H](C)CO)C(=O)c2cccc(NC(=O)Nc3ccc(C(F)(F)F)cc3)c2O[C@H]1CN(C)C(=O)NC1CCCCC1`, the AC35 is 11.2 µM. As to `CC1(C)CCN2CCC(C)(C)c3c(O)ccc1c32`, the AC35 is 6.54 µM. Take `O=C(CCc1ccccc1)NCC(c1ccco1)N1CCc2ccccc21` (stereo unspecified): the AC35 was 16.7 µM. `O=C1C=CC(O)(c2cc(=O)c3c(O)cc(O)cc3o2)C=C1`: the AC35 is 8.15 µM. With `COc1ccc(O)c(/C=N/NC(=O)c2ccc(N3CCCC3=O)cc2)c1` the figure was 2.93 µM; with `CC1=Nc2cc(C(=O)NCC3CCCO3)ccc2Sc2ccc(C)cc21` (stereo unspecified), 13.5 µM.

Consider `O=C(Nc1cccc(F)c1)N1CCCCN2[C@@H](CO)[C@H](c3ccc(C#CC4CC4)cc3)[C@@H]2C1`, for which the AC35 is 10.1 µM. `CC(=O)Oc1ccc(N2C(=O)c3cccc4c([N+](=O)[O-])ccc(c34)C2=O)cc1`: the AC35 is 16.7 µM.

For `CCc1ccc(OCCNc2cc(N3CCNC(C)C3)ccc2[N+](=O)[O-])cc1` (stereo unspecified), the AC35 is 9.58 µM.

Consider `CCc1ccc(-c2nc(C(N)=O)c3[nH]c(=O)n(-c4ccccc4OC)c3n2)cc1`, for which the AC35 is 9.05 µM. `Cc1cccc(N(C)C(=O)c2cc3c(=O)[nH]c4ccc(C)cc4c3s2)c1`: the AC35 was 4.26 µM.

In the case of `CN1C(=O)NC(=O)C2(CCCC2)C1=O`, the AC35 is 9.42 µM. `C/C(=N\NC(=O)c1cc(-c2cccs2)nc2ccccc12)c1ccccn1`: the AC35 was 1.63 µM. Take `Cc1c(C(=O)N/N=C/c2c(O)ccc3ccccc23)nnn1-c1nonc1N`: the AC35 is 1.32 µM. Regarding `CCc1ccc(N2CC(C(=O)Nc3ccccc3N3CCCC3)CC2=O)cc1` (stereo unspecified), the AC35 is 10.8 µM. As to `COc1ccccc1NC(=S)N(Cc1ccco1)Cc1cc2cc(C)cc(C)c2[nH]c1=O`, the AC35 is 11.6 µM. Consider `Cc1cccc(N2CCN(Cc3cn(C)nc3-c3ccccc3F)CC2)n1`, for which the AC35 is 3.97 µM. Under `NCC(=O)NNC(=O)OCC1c2ccccc2-c2ccccc21` stands 12.7 µM. With `O=c1c2ccccc2sc2c(CO)ccc(NCCN3CCCCC3)c12` the figure was 4.82 µM; with `O=C(c1cccc(F)c1)N1CC[C@@H]2[C@H](CO)Nc3ccc(-c4ccccc4F)cc3[C@@H]21`, 18.1 µM; with `COc1ccc(NC(=O)C(=O)NCC2CCCN2S(=O)(=O)c2cccs2)cc1` (stereo unspecified), 12.8 µM.

Turning to `COc1ccc(OC)c(C(=O)Cn2nnc(-c3ccc(N4CCOCC4)cc3)n2)c1`, the AC35 is 16.6 µM. With `CCCC(=O)NC(c1ccc(Cl)cc1)c1ccc2cccnc2c1O` (stereo unspecified), the AC35 was 1.77 µM. In the case of `COC(=O)C1=CN(c2ccc(OC)cc2OC)C(N)=C(C#N)C1c1ccccc1F` (stereo unspecified), the AC35 is 6.17 µM.

Consider `COc1ccc(COc2cc(-c3cccc(OC)c3)nc3ccc(NC(=O)c4ccc(OC)cc4)cc23)cc1`, for which the AC35 was 7.56 µM. On to `N#Cc1ccc(-c2cccs2)nc1SCc1cccnc1`, for which the AC35 was 0.671 µM. Turning to `O=C1c2cccc3c(O)ccc(c23)C(=O)N1Cc1ccco1`, the AC35 was 15.6 µM. On to `Nc1nc(Cl)nc2c1ncn2C1CC(O)C(CO)O1` (stereo unspecified), for which the AC35 was 4.65 µM. Take `COc1ccc(CCNc2ncnc3c2oc2ccccc23)cc1OC`: the AC35 is 11.3 µM. As to `COc1cccc2c1C(=O)c1c(O)c3c(c(O)c1C2=O)C[C@@](O)(C(C)=O)C[C@@H]3O[C@H]1C[C@H](N)[C@H](O)[C@H](C)O1`, the AC35 is 0.156 µM.

With `C[C@H]1CCC/C=C/[C@@H]2C[C@H](O)C[C@H]2[C@H](O)/C=C/C(=O)O1`, the AC35 is 0.115 µM.

On to `CC(=NNC(=S)N1CC2CCC(CC2)C1)c1cnccn1`, for which the AC35 was 0.171 µM. With `COC(=O)CSC1=C(C#N)C(c2ccc(C)o2)CC(=O)N1` (stereo unspecified) the figure was 19.1 µM; with `Cc1ccc2[nH]c(C(=O)N/N=C/c3ccccc3O)c(C)c2c1`, 2.41 µM. Under `COc1cc(-c2nccc3cc4c(cc23)OCO4)cc(OC)c1OC` stands 5.6 µM; under `CC1(S(=O)(=O)O)CC(=O)c2ccccc2C1=O` (stereo unspecified), 20.1 µM.

For the compound `COc1cc(OC)cc(-c2nc3ccccc3c(=O)n2OC(=O)c2ccc(C)c(C)c2)c1`, the AC35 was 21.5 µM. `CN(C)CCCNc1c2ccccc2nc2ccccc12`: the AC35 is 0.794 µM. `CC(=NNC(=S)N1CCCCC1)c1cccc(C)n1`: the AC35 is 15.6 µM. Take `COc1cccc(Nc2nc(-c3sc(NC(=O)c4ccccc4)nc3C)cs2)c1`: the AC35 is 6.58 µM. For the compound `O=C(CCCl)Nc1nc2c(s1)CCc1ccccc1-2`, the AC35 was 20.6 µM.

In the case of `CCOC(=O)N1CCC(NC(=O)c2ccc3c(c2)N=C(C)c2c(C)ccc(C)c2S3)CC1`, the AC35 was 2.44 µM.

For the compound `CCc1cc(-c2nnn(CCC3COCCO3)c2CC)ccc1-c1cn(Cc2ccc3ccccc3c2)nn1` (stereo unspecified), the AC35 was 15.8 µM. On to `O=[N+]([O-])c1ccc(N=Nc2c(Cl)cc(O)cc2Cl)cc1`, for which the AC35 was 4.24 µM.

Regarding `N#C/C(=C/c1ccc(N2CCCCC2)o1)C(=O)Nc1ccc2ccccc2c1`, the AC35 was 21.1 µM. Consider `COc1ccc(CC(=O)NCc2ccc(-n3cccc3)cc2)cc1OC`, for which the AC35 was 9.29 µM. For `Nc1sc(-c2ccccc2)cc1-c1n[nH]c(=S)n1C1CCCCC1`, the AC35 was 7.54 µM. For `O[Si](CCCN1CCCCC1)(c1ccc(F)cc1)C1CCCCC1` (stereo unspecified), the AC35 is 10.3 µM. Under `COc1ccc(NC(=O)c2nc(C)c(C3(C)CC(c4ccccc4)=NO3)s2)cc1` (stereo unspecified) stands 17.1 µM; under `O=C(Cc1ccccc1)N1CC(=O)N2[C@H](CO)[C@@H](c3ccc(-c4ccccc4)cc3)[C@@H]2C1`, 18.7 µM. `O=C(c1cccc(S(=O)(=O)N2CCN(c3ccc(F)cc3)CC2)c1)N1CCCC(C(F)(F)F)C1` (stereo unspecified): the AC35 is 9.64 µM. Consider `Nc1ccn(C2OC(CO)C(O)C2O)c(=O)n1` (stereo unspecified), for which the AC35 is 6.2 µM.

Consider `COc1ccc(S(=O)(=O)NCc2ccccn2)cc1NC(=O)c1ccccc1F`, for which the AC35 is 18.5 µM. `O=C(C[C@@H]1CC[C@@H]2[C@H](COC[C@H](O)CN2Cc2ccc(Oc3ccccc3)cc2)O1)N1CCN(c2ccccc2)CC1`: the AC35 was 7.84 µM.

In the case of `Cc1ccnc(N2C(=O)c3cccc4c([N+](=O)[O-])ccc(c34)C2=O)c1`, the AC35 is 14.9 µM. With `O=C(NCc1ccccc1)C1Cc2c(-c3cccc(F)c3)ccnc2O1` (stereo unspecified), the AC35 is 22.1 µM.
